One experiment relates to Jurkat. Description: inhibition of proliferation by [3H]thymidine incorporation, Jurkat. The format is cell-based. Particulars: Jurkat cells (CD3); Fig.3. How it is done:
Monoclonal antibodies were conjugated with ß-amanitin-N-hydoxysuccinimide ester by incubating the antibody in PBS (2mg/mL) with 10-30 equivalents of the activated ß-amanitin derivative at 4°C under gentle shaking. After reaction for 16h the protein derivative was separated from unreacted amanitin by gelfiltration chromatography on Sephadex G25 using PBS as solvent. The combined protein fractions were concentrated to a protein concentration of ca 2 mg/mL and a toxin concentration of ca. 5 x 10^-5M. The ratio toxin : mAB was in the range of 5-15 : 1.
Three different cell lines, MCF-7, Jurkat, and Raji, exposing the specific receptors EpCAM, CD3, and CD71, respectively, were tested for the inhibition of proliferation by such ß-amanitin-monoclonal antibody conjugates, as followed by [^3H]thymidine incorporation. […] In all cases was amanitin conjugated to a specific antibody distinctly more toxic to the corresponding cell line than free amanitin, or amanitin conjugated to unspecific antibodies.

Experiment [1] addresses DNA-dependent RNA polymerase II of mammalian cells (Homo sapiens, UniProt P24928+P30876). The following applies: complex between amanitin and RNA-polymerase II; cited from earlier work.
A further experiment has as its system Jurkat cells. Description: apoptosis in cultures of Jurkat cells incubated with toxin. In kind it is cell-based. The following applies: own unpublished results. The text has this: Amatoxins (α-amanitin, β-amanitin, amanin) are cyclic peptides composed of 8 amino acids. They can be isolated from Amanita phalloides mushrooms or prepared from the building blocks by synthesis. Amatoxins inhibit specifically the DNA-dependent RNA polymerase II of mammalian cells, and by this transcription and protein biosynthesis of the cells affected. Inhibition of transcription in a cell causes stop of growth and proliferation. Though not covalently bound, the complex between amanitin and RNA-polymerase II is very tight (KD = 3nM). Dissociation of amanitin from the enzyme is a very slow process what makes recovery of an affected cell unlikely.
Phallotoxins (phalloidin, phallacidin, aminophalloidin) are cyclic peptides composed of 7 aminoacids. They bind specifically to the cytoskeletal protein actin in its polymeric form (microfilaments). By this, they prevent depolymerization of the microfilaments and disturb the proper function of the actin cytoskeleton. The actin cytoskeleton is a dense meshwork of microfilaments undergoing, under the control of actin-associated proteins, rapid cycles of assembly and disassembly essential for dynamic processes such as cell division and migration. Likewise, invasion by metastatic cells is thought to be dependent on actin. […]

For the next experiment, the system named is actin. Kind of experiment: binding to actin.

pKd: −log10 of the molar value.

These results are taken from EP1859811B1, “Use of conjugates of amatoxins or phallotoxins with macromolecules for tumor and inflammation therapy” (Faulstich, Heinz, Dr., priority 2006, dated 2007).

What is called pKd is the negative decadic logarithm of the Kd, by convention in mol/L.

With OKT3, the “times more inhibitory for the proliferation than the amanitin conjugate of an unspecific monoclonal antibody (ALH-419)” value in the experiment with Jurkat stood at 330 times.

Consider amanitin, for which the pKd in experiment [1] was 8.52.

Consider phalloidin oleate, for which the “programmed cell death (apoptosis)” value with Jurkat cells is given as “caused apoptosis”.

As for thiopropionyl-aminophalloidin, the “actin binding compared with phalloidin” value in the experiment with actin is reported as “binds actin as tightly as phalloidin itself”.

For the substance α-amanitin, the “programmed cell death (apoptosis)” value in the experiment on Jurkat cells is listed as “undergoes programmed cell death (apoptosis)”.
